{"source": "patent US4721704A", "about": "“Potent synthetic atrial peptide analogs” (Peninsula Laboratories, Inc., priority 1986, dated 1988)", "origin": "cited, not measured here", "key": {"[1]": {"tested_on": "patients", "conditions": "400 μg bolus doses"}, "[2]": {"conditions": "Atriopeptin III and α-hANP compared with each other"}}, "note": "Ends that are not written are not given here."}
{"substance": "α-human atrial natriuretic polypeptide (SLRRSSCFGGRMDRIGAQSGLGCNSFRY; ends and bridges not checked; cysteine pairing not given here; UniProt P01160 124-151, looked up) [α-hANP, peptide isolated from human atria]", "values": [{"measurement": "diuretic action", "setting": "[1]", "result": "acting as a diuretic"}, {"measurement": "effect on blood pressure", "setting": "[1]", "result": "decreasing blood pressure"}, {"measurement": "hypotensive, diuretic and natriuretic activities", "setting": "[2]", "result": "about comparable"}]}
